Columns and labels:
Test in all cases: relative viability (nuclei count vs DMSO), 5 days (fraction); higher = more cells survive
XMD14-99 + Decitabine = compound: CN1CCN(CC1)C2=CC(=C(C=C2)NC3=NC(=C(S3)C(=O)C4=C(C=CC=C4Cl)Cl)N)OC [XMD14-99] + Nc1ncn([C@H]2C[C@H](O)[C@@H](CO)O2)c(=O)n1 [Decitabine] (partner 2 µM)
Summary of the method: (§1)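 Lung cancer cell lines, seeded in 1536-well plates, were treated the following day by pin tool with a single drug or with five library-drug doses (not always all listed) in √10 steps on top of a fixed anchor-drug dose. Cells were fixed and nuclei stained in one step after 5 days, and nuclei were counted. Relative viability is the nuclei count for treated wells divided by that for vehicle wells, reported as medians of duplicate plates.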

AZD1208 + Navitoclax = compound: N[C@@H]1CCCN(c2c(/C=C3\SC(=O)NC3=O)cccc2-c2ccccc2)C1 [AZD1208] + CC1(C)CCC(c2ccc(Cl)cc2)=C(CN2CCN(c3ccc(C(=O)NS(=O)(=O)c4ccc(N[C@H](CCN5CCOCC5)CSc5ccccc5)c(S(=O)(=O)C(F)(F)F)c4)cc3)CC2)C1 [Navitoclax] (partner 0.5 µM)
Summary of the method: as §1

XMD14-99 + Trametinib = compound: CN1CCN(CC1)C2=CC(=C(C=C2)NC3=NC(=C(S3)C(=O)C4=C(C=CC=C4Cl)Cl)N)OC [XMD14-99] + CC(=O)Nc1cccc(-n2c(=O)n(C3CC3)c(=O)c3c(Nc4ccc(I)cc4F)n(C)c(=O)c(C)c32)c1 [Trametinib] (partner 0.02 µM)
Summary of the method: as §1

XMD14-99 + Phenformin = compound: CN1CCN(CC1)C2=CC(=C(C=C2)NC3=NC(=C(S3)C(=O)C4=C(C=CC=C4Cl)Cl)N)OC [XMD14-99] + N=C(N)NC(=N)NCCc1ccccc1 [Phenformin] (partner 250 µM)
Summary of the method: as §1

Row | Cell Line | relative viability (XMD14-99 + Decitabine; first compound 0.08 µM) | relative viability (XMD14-99 + Decitabine; first compound 0.8 µM) | relative viability (XMD14-99 + Decitabine; first compound 2.53 µM) | relative viability (XMD14-99 + Decitabine; first compound 8 µM) | relative viability (AZD1208 + Navitoclax; first compound 0.08 µM) | relative viability (AZD1208 + Navitoclax; first compound 0.253 µM) | relative viability (AZD1208 + Navitoclax; first compound 0.8 µM) | relative viability (AZD1208 + Navitoclax; first compound 2.53 µM) | relative viability (AZD1208 + Navitoclax; first compound 8 µM) | relative viability (XMD14-99 + Trametinib; first compound 0.08 µM) | relative viability (XMD14-99 + Trametinib; first compound 0.8 µM) | relative viability (XMD14-99 + Trametinib; first compound 2.53 µM) | relative viability (XMD14-99 + Trametinib; first compound 8 µM) | relative viability (XMD14-99 + Phenformin; first compound 0.08 µM) | relative viability (XMD14-99 + Phenformin; first compound 0.8 µM) | relative viability (XMD14-99 + Phenformin; first compound 2.53 µM) | relative viability (XMD14-99 + Phenformin; first compound 8 µM)
1 | NCI-H596 | 1.03 | 0.943 | 0.858 | 0.964 | 0.912 | 1.02 | 0.85 | 0.827 | 0.651 | 0.749 | 0.849 | 1.06 | 0.764 | 0.799 | 0.883 | 0.733 | 0.784
2 | NCI-H520 | 0.465 | 0.468 | 0.483 | 0.44 | 0.973 | 1.22 | 0.991 | 0.838 | 0.767 | 0.656 | 0.747 | 0.745 | 0.437 | 0.603 | 0.526 | 0.498 | 0.361
3 | EKVX | 0.274 | 0.322 | 0.316 | 0.239 | 0.931 | 0.995 | 0.754 | 0.933 | 0.944 | 0.321 | 0.298 | 0.382 | 0.294 | 0.261 | 0.246 | 0.227 | 0.23
4 | EPLC-272H | 0.386 | 0.41 | 0.353 | 0.314 | 1.08 | 1.24 | 1.08 | 1.04 | 0.897 | 0.274 | 0.265 | 0.287 | 0.251 | 0.284 | 0.256 | 0.302 | 0.347
5 | NCI-H1395 | 0.696 | 0.7 | 0.712 | 0.653 | 1.05 | 1.23 | 0.956 | 1.02 | 0.872 | 0.992 | 1.05 | 0.958 | 1 | 0.471 | 0.458 | 0.404 | 0.438
6 | LXF-289 | 0.378 | 0.371 | 0.37 | 0.36 | 0.955 | 1.01 | 0.932 | 0.978 | 1.03 | 0.632 | 0.639 | 0.611 | 0.529 | 0.52 | 0.502 | 0.487 | 0.457
7 | NCI-H2023 | 0.222 | 0.212 | 0.228 | 0.166 | 1.02 | 0.99 | 0.977 | 0.934 | 0.959 | 0.495 | 0.562 | 0.754 | 0.442 | 0.378 | 0.422 | 0.338 | 0.245
8 | NCI-H3122 | 0.405 | 0.359 | 0.333 | 0.283 | 1.04 | 1 | 0.995 | 1.05 | 1.08 | 0.261 | 0.22 | 0.269 | 0.22 | 0.372 | 0.361 | 0.291 | 0.237
9 | NCI-H1755 | 0.761 | 0.68 | 0.698 | 0.709 | 0.991 | 0.989 | 1.02 | 0.952 | 0.786 | 0.794 | 0.777 | 0.752 | 0.559 | 0.587 | 0.57 | 0.578 | 0.523
10 | HCC-78 | 0.709 | 0.646 | 0.822 | 0.47 | 0.951 | 0.752 | 0.672 | 0.685 | 0.709 | 0.628 | 0.711 | 0.753 | 0.438 | 0.681 | 0.551 | 0.743 | 0.451
11 | LOU-NH91 | 0.868 | 0.853 | 0.807 | 0.776 | 0.689 | 0.709 | 0.648 | 0.638 | 0.577 | 0.865 | 0.829 | 0.793 | 0.762 | 0.716 | 0.777 | 0.573 | 0.556
12 | NCI-H322M | 0.684 | 0.667 | 0.706 | 0.645 | 1.1 | 1.27 | 1.2 | 1.13 | 1.2 | 0.491 | 0.565 | 0.593 | 0.521 | 0.787 | 0.834 | 0.699 | 0.627
13 | HCC-827 | 0.354 | 0.273 | 0.296 | 0.306 | 1.05 | 1.11 | 0.984 | 1.07 | 0.983 | 0.539 | 0.529 | 0.542 | 0.432 | 0.406 | 0.37 | 0.377 | 0.308
14 | SW 1573 | 0.451 | 0.545 | 0.475 | 0.334 | 0.896 | 0.948 | 0.765 | 0.995 | 0.717 | 0.547 | 0.58 | 0.74 | 0.47 | 0.357 | 0.386 | 0.413 | 0.363
15 | NCI-H1975 | 0.495 | 0.412 | 0.449 | 0.317 | 1.19 | 1.05 | 1.14 | 1.01 | 1.09 | 0.263 | 0.416 | 0.32 | 0.308 | 0.379 | 0.41 | 0.325 | 0.317
16 | NCI-H1651 | 0.683 | 0.546 | 0.601 | 0.509 | 0.879 | 0.929 | 0.858 | 0.887 | 0.774 | 0.827 | 0.835 | 0.88 | 0.835 | 0.321 | 0.319 | 0.301 | 0.272
17 | NCI-H460 | 0.461 | 0.486 | 0.495 | 0.385 | 1.05 | 1.34 | 1.17 | 1.26 | 1.16 | 0.32 | 0.228 | 0.126 | 0.089 | 0.517 | 0.498 | 0.431 | 0.325
18 | LCLC-97TM1 | 0.226 | 0.233 | 0.236 | 0.255 | 0.369 | 0.271 |  | 0.446 | 0.21 | 0.172 | 0.229 | 0.208 | 0.18 | 0.431 | 0.414 | 0.466 | 0.355
19 | NCI-H838 | 0.477 | 0.452 | 0.426 | 0.436 | 1.07 | 1.18 | 1.1 | 1.12 | 1.01 | 0.502 | 0.486 | 0.433 | 0.357 | 0.612 | 0.556 | 0.474 | 0.383

Reference: the supplement of paper PMC10307832
